Measured values as given in US7598237B2 (Wyeth, priority 2004, dated 2009).

test system: not given; experiment: not given; settings: not given

Row | Structure (SMILES) | melting point [°C]
1 | CC1(C)OCC(=O)Nc2ccc(-c3cc(F)cc(C#N)c3)cc21 [Compound 3, 3-(5,5-dimethyl-2-oxo-1,2,3,5-tetrahydro-4,1-benzoxazepin-7-yl)-5-fluorobenzonitrile] | 238 to 239
2 | Cn1c(C#N)ccc1-c1ccc2c(c1)C(C)(c1cccs1)OCC(=O)N2 (centres unmarked) [Compound 6, 1-Methyl-5-[5-methyl-2-oxo-5-(2-thienyl)-1,2,3,5-tetrahydro-4,1-benzoxazepin-7-yl]-1H-pyrrole-2-carbonitrile] | 197 to 198
3 | CCC1(c2cccs2)OCC(=O)Nc2ccc(-c3sc(C#N)cc3C)cc21 (centres unmarked) [Example 140, 5-(5-Ethyl-2-oxo-5-thien-2-yl-1,2,3,5-tetrahydro-4,1-benzoxazepin-7-yl)-4-methylthiophene-2-carbonitrile] | 182 to 184

The remaining lines, values ahead:

Row | melting point [°C] | Structure (SMILES)
4 | 197 to 199 | CCC1(c2cccs2)OCC(=O)Nc2ccc(-c3ccc(F)c(C#N)c3)cc21 (centres unmarked) [Example 139, 5-(5-Ethyl-2-oxo-5-thien-2-yl-1,2,3,5-tetrahydro-4,1-benzoxazepin-7-yl)-2-fluorobenzonitrile]
5 | 99 to 100 | CCC1(c2cccs2)OCC(=O)Nc2ccc(-c3coc(C#N)c3)cc21 (centres unmarked) [Example 141, 4-(5-Ethyl-2-oxo-5-thien-2-yl-1,2,3,5-tetrahydro-4,1-benzoxazepin-7-yl)-2-furonitrile]
6 | 202 to 204 | CCC1(c2cccs2)OCC(=O)Nc2ccc(-c3csc(C#N)c3)cc21 (centres unmarked) [Example 143, 4-(5-Ethyl-2-oxo-5-thien-2-yl-1,2,3,5-tetrahydro-4,1-benzoxazepin-7-yl)thiophene-2-carbonitrile]

target: T1, progesterone receptor (PR) (Homo sapiens, UniProt P06401); experiment: T47D cell alkaline phosphatase assay; format: cell-based; settings: T47D cells; antagonist mode, in the presence of 1 nM progesterone; first TABLE 2; read-out: Alk. Phos. IC50
T1 construct: effect on alkaline phosphatase activity in T47D cells; endogenous in cells; host or cells: T47D cells
T1 sequence (P06401 1-933): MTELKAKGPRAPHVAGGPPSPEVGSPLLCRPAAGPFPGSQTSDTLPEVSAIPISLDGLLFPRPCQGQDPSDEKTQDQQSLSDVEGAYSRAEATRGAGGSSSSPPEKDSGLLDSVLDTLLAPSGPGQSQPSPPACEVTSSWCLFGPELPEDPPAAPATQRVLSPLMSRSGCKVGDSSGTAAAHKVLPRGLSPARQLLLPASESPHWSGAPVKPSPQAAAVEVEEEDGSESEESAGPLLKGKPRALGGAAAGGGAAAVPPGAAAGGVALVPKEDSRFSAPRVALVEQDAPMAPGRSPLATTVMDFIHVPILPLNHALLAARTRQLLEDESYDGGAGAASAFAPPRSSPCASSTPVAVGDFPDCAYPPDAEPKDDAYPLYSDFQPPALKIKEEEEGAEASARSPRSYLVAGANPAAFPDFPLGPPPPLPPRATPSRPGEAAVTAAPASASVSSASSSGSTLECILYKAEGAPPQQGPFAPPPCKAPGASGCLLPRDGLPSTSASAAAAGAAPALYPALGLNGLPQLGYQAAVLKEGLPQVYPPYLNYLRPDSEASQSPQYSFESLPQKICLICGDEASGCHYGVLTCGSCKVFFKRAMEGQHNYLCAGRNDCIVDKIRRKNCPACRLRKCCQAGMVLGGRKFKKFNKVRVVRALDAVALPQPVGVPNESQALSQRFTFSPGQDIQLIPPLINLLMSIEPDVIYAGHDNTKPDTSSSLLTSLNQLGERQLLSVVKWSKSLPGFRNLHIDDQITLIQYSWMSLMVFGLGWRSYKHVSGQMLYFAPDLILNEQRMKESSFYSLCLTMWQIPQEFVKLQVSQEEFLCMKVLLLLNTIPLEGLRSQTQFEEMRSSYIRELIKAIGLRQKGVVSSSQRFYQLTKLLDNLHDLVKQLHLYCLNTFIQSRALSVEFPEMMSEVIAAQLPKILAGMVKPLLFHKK
Protocol: (4) T47D Cell Alkaline Phosphatase Assay
To identify progestins or antiprogestins by determining a compound's effect on alkaline phosphatase activity in T47D cells.
DMEM:F12 (1:1) (GIBCO, BRL) supplemented with 5% (v/v) charcoal stripped fetal bovine serum (not heat-inactivated), 100 U/ml penicillin, […], and 2 mM GlutaMax (GIBCO, BRL).
I. 0.1 M Tris-HCl, pH 9.8, containing 0.2% Triton X-100
II. 0.1 M Tris-HCl, pH 9.8 containing 4 mM p-nitrophenyl phosphate (Sigma).
Frozen T47D cells were thawed in a 37° C. water bath and diluted to 280,000 cells/ml in culture medium. To each well in a 96-well plate (Falcon, Becton Dickinson Labware), 180 μl of diluted cell suspension was added. Twenty μl of reference or test compounds diluted in the culture medium was then added to each well. […] The cells were incubated at 37° C. in a 5% CO2/humidified atmosphere for 24 hr.
Note: For high throughput screening, one concentration of each compound was tested at 0.3 mg/ml. Based on an average molecular weight of 300 g/mol for the compounds in the library, the concentration was approximately 1 mM. […] Alkaline Phosphatase Enzyme Assay: […]
For reference and test compounds, a dose response curve was generated for dose (X-axis) vs. the rate of enzyme reaction (slope) (Y-axis). […] EC50 or IC50 values were calculated from the retransformed values. […]

Row | IC50 [nM] | Structure (SMILES)
7 | 11.3 | Cn1c(C#N)ccc1-c1ccc2c(c1)C(c1cccs1)(c1cccs1)OCC(=O)N2 [Compound 14, 1-Methyl-5-(2-oxo-5,5-dithien-2-yl-1,2,3,5-tetrahydro-4,1-benzoxazepin-7-yl)-1H-pyrrole-2-carbonitrile]
8 | 14.6 | CCC1(c2cccs2)OCC(=O)Nc2ccc(-c3ccc(C#N)n3C)cc21 (centres unmarked) [Compound 19, 5-(5-Ethyl-2-oxo-5-thien-2-yl-1,2,3,5-tetrahydro-4,1-benzoxazepin-7-yl)-1-methyl-1H-pyrrole-2-carbonitrile]
